The results in this text go back to patent publication US10100010B1, “4-methoxy pyrrole derivatives or salts thereof and pharmaceutical composition comprising the same” (Daewoong Pharmaceutical Co., Ltd., priority 2015, dated 2018).

Holding throughout (assay type): cell-based
Assay [1] addresses T1, M2 (Homo sapiens, UniProt P08172).
T1 sequence (P08172 1-466): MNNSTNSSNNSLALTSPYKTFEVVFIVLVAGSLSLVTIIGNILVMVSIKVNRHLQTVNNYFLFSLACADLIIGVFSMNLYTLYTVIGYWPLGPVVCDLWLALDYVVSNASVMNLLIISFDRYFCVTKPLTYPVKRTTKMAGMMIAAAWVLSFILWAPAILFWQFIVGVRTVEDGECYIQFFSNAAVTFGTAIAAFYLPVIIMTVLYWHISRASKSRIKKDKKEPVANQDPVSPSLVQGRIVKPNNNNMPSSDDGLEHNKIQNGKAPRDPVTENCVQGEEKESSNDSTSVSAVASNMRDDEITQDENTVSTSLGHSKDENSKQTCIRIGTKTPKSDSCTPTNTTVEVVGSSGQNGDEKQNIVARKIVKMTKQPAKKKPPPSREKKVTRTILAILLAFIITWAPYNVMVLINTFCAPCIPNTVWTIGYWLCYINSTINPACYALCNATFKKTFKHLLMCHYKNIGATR
Kind of assay: GPCR Calcium Flux assay (FLIPR tetra, Eurofins), M2. Conditions: for inhibition at 10 µM: single concentration of 10 uM, read-out: inhibition rate (%) M2; for IC50: 8 concentrations 10 to 0.0006 uM, read-out: 50% inhibitory concentration (IC50) M2. The method, then: (§1) In order to confirm whether the compounds prepared in the above Examples act as an agonist or antagonist against GPCR Target, Calcium Flux assay was performed in an assay plate in which the compounds prepared in the Examples, vehicle controls, and reference compounds were added, using a Fluorometric imaging plate reader (FLIPR tetra) equipment.
(§2) Calcium Flux assay was evaluated by entrusting the GPCR profiler assay in Safety panel assays with Eurofins. By using the Fluo-8AM calcium dye, excitation was measured at a wavelength in the range of 470 to 495 nm and Emission was measured at a wavelength in the range of 515-575 nm. GPCR Assay Buffer for Calcium Flux assay was prepared by adding 20 mM of HEPES and 2.5 mM of Probenecid to Hanks Balanced Salt Solution (HBSS) to have pH 7.4. The Compounds of Examples for evaluation of the GPCR were diluted with DMSO at a concentration of 10 mM to make a stock and then prepared by diluting in the GPCR Assay Buffer at the concentration equivalent to three times the final concentration. First, for the evaluation of GPCRs, the inhibitory activity of the compounds of the Examples was evaluated at a single concentration of 10 uM, and then the respective selected targets were four fold-diluted from 10 uM to the low side to calculate 50% inhibitory concentration (IC50), prepared at the total 8 concentrations of 10, 2.5, 0.62, 0.15, 0.04, 0.01, 0.0024, 0.0006 uM, and Calcium Flux assay for GPCR was conducted. In order to evaluate the agonist and antagonist, % inhibition rate against GPCR activity before and after treatment of the compounds and the inhibitory activity of the compounds of the Examples were determined.
(§3) As a result, when the efficacy of […] and acetylcholine of the compounds prepared in the Examples was 100%, the inhibition rate (%) at a single concentration of 10 uM was evaluated and shown in Table 8.

For assay [2], the target named is 5-HT2A (Homo sapiens, UniProt P28223). Kind of assay: GPCR Calcium Flux assay (FLIPR tetra, Eurofins), 5-HT2A. The conditions noted are these: for IC50: 8 concentrations 10 to 0.0006 uM, read-out: 50% inhibitory concentration (IC50) 5-HT2A; for inhibition at 10 µM: single concentration of 10 uM, read-out: inhibition rate (%) 5-HT2A. The method, then:
as §1, §2, §3
(In general: A change in cytosolic calcium serves as a functional read-out for many receptors and channels.)

The target in assay [3] is T2, M1 (Homo sapiens, UniProt P11229).
T2 sequence (P11229 1-460): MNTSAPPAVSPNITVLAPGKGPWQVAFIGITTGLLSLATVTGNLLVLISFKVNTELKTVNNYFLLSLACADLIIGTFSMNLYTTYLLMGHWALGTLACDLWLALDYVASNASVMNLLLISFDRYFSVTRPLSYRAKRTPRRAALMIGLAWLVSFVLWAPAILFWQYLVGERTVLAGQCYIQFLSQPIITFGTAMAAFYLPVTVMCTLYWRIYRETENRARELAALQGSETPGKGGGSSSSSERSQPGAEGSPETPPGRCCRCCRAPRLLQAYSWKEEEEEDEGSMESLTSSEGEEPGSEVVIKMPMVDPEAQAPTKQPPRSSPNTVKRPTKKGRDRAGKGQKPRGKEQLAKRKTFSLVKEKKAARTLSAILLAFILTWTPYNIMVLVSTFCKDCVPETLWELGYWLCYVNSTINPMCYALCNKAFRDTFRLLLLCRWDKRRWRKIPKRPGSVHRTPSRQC
Kind of assay: GPCR Calcium Flux assay (FLIPR tetra, Eurofins), M1. Conditions: for IC50: 8 concentrations 10 to 0.0006 uM, read-out: 50% inhibitory concentration (IC50) M1; for inhibition at 10 µM: single concentration of 10 uM, read-out: inhibition rate (%) M1. On the procedure: as §1, §2, §3

Structures can show the parent of a compound that is named as a salt.

Chain of 5-HT2A (P28223 whole entry): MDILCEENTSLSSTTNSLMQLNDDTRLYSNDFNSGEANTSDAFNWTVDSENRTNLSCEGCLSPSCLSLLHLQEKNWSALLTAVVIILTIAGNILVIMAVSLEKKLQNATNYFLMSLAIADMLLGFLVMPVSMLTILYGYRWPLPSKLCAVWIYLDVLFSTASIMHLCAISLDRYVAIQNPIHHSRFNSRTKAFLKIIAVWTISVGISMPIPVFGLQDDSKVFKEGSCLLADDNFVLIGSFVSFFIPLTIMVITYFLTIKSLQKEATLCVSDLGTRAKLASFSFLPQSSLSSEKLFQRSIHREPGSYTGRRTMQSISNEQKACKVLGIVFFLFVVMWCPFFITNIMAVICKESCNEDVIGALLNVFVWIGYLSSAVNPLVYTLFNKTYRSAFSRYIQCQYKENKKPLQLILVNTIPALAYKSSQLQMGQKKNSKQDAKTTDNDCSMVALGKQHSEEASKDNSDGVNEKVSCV

Turning to `CNCc1cn(S(=O)(=O)c2ccc(F)c(Cl)c2)c(-c2c(F)cccc2F)c1OC` [Example 18, 1-(5-(2,6-difluorophenyl)-1-((3-chloro-4-fluorophenyl)sulfonyl)-4-methoxy-1H-pyrrol-3-yl)-N-methylmethanamine hydrochloride], the inhibition at 10 µM in assay [1] stood at 42.1%; in assay [2], 98.1%; in assay [3] it was 91.2%. The IC50 in assay [2] was 210 nM; in assay [3], roughly 2100 nM.

Turning to `CNCc1cn(S(=O)(=O)c2ccc(F)c(F)c2)c(-c2c(F)cccc2F)c1OC` [Example 19, 1-(5-(2,6-difluorophenyl)-1-((3,4-difluorophenyl)sulfonyl)-4-methoxy-1H-pyrrol-3-yl)-N-methylmethanamine hydrochloride], the IC50 was 820 nM in assay [1], 120 nM in assay [2] and 430 nM in assay [3]. Also, the inhibition at 10 µM in assay [1] was determined as 102%; in assay [2] it was 102%; in assay [3], 101%.

Turning to `CNCc1cn(S(=O)(=O)c2cccc(F)c2)c(-c2c(F)cccc2Cl)c1OC` [Example 20, 1-(5-(2-fluoro-6-chlorophenyl)-1-((3-fluorophenyl)sulfonyl)-4-methoxy-1H-pyrrol-3-yl)-N-methylmethanamine hydrochloride], the inhibition at 10 µM in assay [1] amounted to 90.5%; in assay [2], 99.2%; in assay [3], 103%.

For the compound `CNCc1cn(S(=O)(=O)c2cccc(C(F)(F)F)c2)c(-c2c(F)cc(F)cc2F)c1OC` [Example 24, 1-(1-((3-trifluoromethylphenyl)sulfonyl)-4-methoxy-5-(2,4,6-trifluorophenyl)-1H-pyrrol-3-yl)-N-methylmethanamine hydrochloride], the IC50 in assay [1] is greater than 10000 nM; in assay [2], 62 nM; in assay [3], greater than 1000 nM. Besides, the inhibition at 10 µM is 22% in assay [1], 62.2% in assay [2] and 93.4% in assay [3].

For the compound `CNCc1cn(S(=O)(=O)c2ccc(F)c(F)c2)c(-c2c(F)cc(F)cc2F)c1OC` [Example 26, 1-(1-((3,4-difluorophenyl)sulfonyl)-4-methoxy-5-(2,4,6-trifluorophenyl)-1H-pyrrol-3-yl)-N-methylmethanamine hydrochloride], the figures for the inhibition at 10 µM in assay [1], in assay [2] and in assay [3] were 89.2%, 99% and 101%, respectively.

As to `CNCc1cn(S(=O)(=O)c2cccc(Cl)c2)c(-c2c(F)ccc(F)c2F)c1OC` [Example 28, 1-(1-((3-chlorophenyl)sulfonyl)-4-methoxy-5-(2,3,6-trifluorophenyl)-1H-pyrrol-3-yl)-N-methylmethanamine hydrochloride], the results for the inhibition at 10 µM in assay [1], in assay [2] and in assay [3] were 61.9%, 97.6% and 99.4%, respectively. Moreover, the IC50 in assay [2] is 67 nM; in assay [3], 550 nM.

Turning to `CNCc1cn(S(=O)(=O)c2cccc(C(F)(F)F)c2)c(-c2c(F)ccc(F)c2F)c1OC` [Example 29, 1-(1-((3-trifluoromethylphenyl)sulfonyl)-4-methoxy-5-(2,3,6-trifluorophenyl)-1H-pyrrol-3-yl)-N-methylmethanamine hydrochloride], the inhibition at 10 µM in assay [1] amounted to 19.4%; in assay [2], 35.7%; in assay [3] it was 68.4%.

As for `CNCc1cn(S(=O)(=O)c2cccc(OC)c2)c(-c2c(F)ccc(F)c2F)c1OC` [Example 30, 1-(1-((3-methoxyphenyl)sulfonyl)-4-methoxy-5-(2,3,6-trifluorophenyl)-1H-pyrrol-3-yl)-N-methylmethanamine hydrochloride], the inhibition at 10 µM in assay [1] stood at 43%; in assay [2], 100%; in assay [3], 94.3%. The IC50 in assay [3] amounted to 1400 nM.

For `CNCc1cn(S(=O)(=O)c2cccc(F)c2)c(-c2cc(F)ccc2F)c1OC` [Example 31, 1-(5-(2,5-difluorophenyl)-1-((3-fluorophenyl)sulfonyl)-4-methoxy-1H-pyrrol-3-yl)-N-methylmethanamine hydrochloride], the inhibition at 10 µM in assay [1] amounted to 98.6%; in assay [2] it was 101%; in assay [3], 100%. In addition, the IC50 in assay [2] came to 42 nM; in assay [3] it was 73 nM.

With `CNCc1cn(S(=O)(=O)c2cccc(C(F)(F)F)c2)c(-c2cc(F)ccc2F)c1OC` [Example 32, 1-(5-(2,5-difluorophenyl)-1-((3-trifluoromethylphenyl)sulfonyl)-4-methoxy-1H-pyrrol-3-yl)-N-methylmethanamine hydrochloride], the inhibition at 10 µM was determined as 10.8% in assay [1], 10.6% in assay [2] and 52.6% in assay [3].

`CNCc1cn(S(=O)(=O)c2cccc(OC)c2)c(-c2cc(F)ccc2F)c1OC` [Example 33, 1-(5-(2,5-difluorophenyl)-1-((3-methoxyphenyl)sulfonyl)-4-methoxy-1H-pyrrol-3-yl)-N-methylmethanamine hydrochloride]: the inhibition at 10 µM was 29% in assay [1], 96.7% in assay [2] and 81.5% in assay [3]. For the same compound, the IC50 in assay [2] is 1700 nM.

By inhibition is commonly meant the relative decrease from the control value, in per cent.
